Active and inactive are the calls of the source. No cut-off for these calls is given here.

Assay [1] deals with PC-12. Kind of assay: Induction of neurite outgrowth in rat PC-12 cells assessed as increase in neuronal growth at 10 uM measured after 48 hrs by light microscopic analysis relative to control. Type of assay: functional.
The test system of assay [2] is PC-12. Put plainly: Inhibition of HDAC6 in rat PC-12 cells assessed as increase in acetylated alpha-tubulin level incubated for 6 hrs by Western blot analysis. As to conditions: dose 0.1-10 µM. Type of assay: cell-based. On the technique in general: In western blotting, separated proteins are transferred to a membrane and probed.
Assay [3] addresses T1, Polyamine deacetylase HDAC10 (Homo sapiens, UniProt Q969S8).
T1 sequence (Q969S8 whole entry): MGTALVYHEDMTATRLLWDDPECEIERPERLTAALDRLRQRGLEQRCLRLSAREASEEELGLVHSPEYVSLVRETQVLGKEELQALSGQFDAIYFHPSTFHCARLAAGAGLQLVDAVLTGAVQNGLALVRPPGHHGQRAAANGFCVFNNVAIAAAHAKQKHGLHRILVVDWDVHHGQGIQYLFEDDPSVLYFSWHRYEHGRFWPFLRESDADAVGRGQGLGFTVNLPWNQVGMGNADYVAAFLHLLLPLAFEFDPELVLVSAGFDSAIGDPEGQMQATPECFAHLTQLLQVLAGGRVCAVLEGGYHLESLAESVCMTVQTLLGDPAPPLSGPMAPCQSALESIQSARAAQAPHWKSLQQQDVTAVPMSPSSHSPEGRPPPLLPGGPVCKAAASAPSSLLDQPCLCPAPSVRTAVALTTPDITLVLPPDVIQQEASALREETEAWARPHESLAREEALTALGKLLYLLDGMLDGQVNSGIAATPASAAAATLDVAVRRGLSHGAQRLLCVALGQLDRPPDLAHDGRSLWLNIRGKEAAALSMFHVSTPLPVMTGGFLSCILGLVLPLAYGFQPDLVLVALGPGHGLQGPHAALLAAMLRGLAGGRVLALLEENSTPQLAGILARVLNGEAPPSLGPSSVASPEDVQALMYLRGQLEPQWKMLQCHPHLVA
Kind of assay: Inhibition of HDAC10 (unknown origin) by TR-FRET assay. For orientation: In TR-FRET formats the signal depends on donor and acceptor labels being close together.

The test system of assay [4] is PC-12. Put plainly: Neuroprotective activity against H2O2-induced oxidative damage in rat PC-12 cells assessed as inhibition of apoptosis by measuring live cells at 10 uM pretreated for 4 hrs followed by H2O2 stimulation and measured after 24 hrs by Annexin V-FITC/PI staining based flow cytometry analysis (reference value: 81.7%). Also noted: scale not given: the % may be the effect or the level left. Type of assay: functional. As to conditions: time 28 hrs. (In general: Flow cytometry measures light scatter and fluorescence of single cells or particles in a stream.)

Assay [5] deals with PC-12. Put plainly: Induction of neurite outgrowth in rat PC-12 cells measured after 48 hrs by light microscopic analysis. The settings on record: dose 1-10 µM. Type of assay: functional, cell-based.
A short description of assay [6]: Antioxidant activity assessed as ABTS radical scavenging activity measured after 30 mins by absorbance based analysis. Type of assay: functional.
The species entered for the next assay is Danio rerio. Put plainly: Cognitive improvement ability in scopolamine induced zebrafish alzheimer disease model assessed as improvement in spatial memory by measuring increase in activity at enriched chamber region at 1 mg/L pretreated with scopolamine for 30 mins followed by compound addition for 3 mins by T-maze test. Type of assay: functional, organism-based.

The subject of assay [7] is PC-12. Put plainly: Neuroprotective activity against H2O2-induced oxidative damage in rat PC-12 cells assessed as inhibition of apoptosis by measuring increase in Bcl-2 protein expression pretreated for 4 hrs followed by H2O2 stimulation and measured after 24 hrs by Western blot analysis. Type of assay: functional, cell-based. The settings on record: dose 1-10 µM, time 28.0 hrs.

For assay [8], the system named is PC-12. Kind of assay: Neuroprotective activity against H2O2-induced oxidative damage in rat PC-12 cells assessed as inhibition of apoptosis by measuring late apoptotic cells at 10 uM pretreated for 4 hrs followed by H2O2 stimulation and measured after 24 hrs by Annexin V-FITC/PI staining based flow cytometry analysis (reference value: 10.9%). Also noted: scale not given: the % may be the effect or the level left. As to conditions: time 28 hrs. Type of assay: functional.

The subject of assay [9] is PC-12. Put plainly: Upregulation of GAP-43 protein expression in rat PC-12 cells measured after 24 hrs by Western blot analysis. Type of assay: functional, cell-based. The settings on record: dose 1-10 µM.

By IC50 is commonly meant the point on the concentration scale where inhibition reaches its midpoint. Turning to `O=C(NO)c1ccc(CN2CCc3c(n(CC4CC4)c4ccc(F)cc34)C2)cc1`, the Activity in the assay on PC-12 [1] was 15.3%; in the assay with PC-12 [4], 91.5%; in the assay on PC-12 [5] it was “Dose-Dependent Effect”; with PC-12 [7], “Dose-Dependent Effect”; in the assay on PC-12 [8], 3.17%; in the assay on PC-12 [9], “Dose-Dependent Effect”. Further, the inhibition result in the assay on PC-12 [2] was “Dose-Dependent Effect”. Besides, the concentration for half-maximal inhibition (IC50) in assay [3] was 0.524 µM; in [6] it was 10.4 µM. Further, the outcome in the assay listed under Danio rerio was Active.
